For the assay, the target named is GCN2 (Homo sapiens (Human), UniProt Q9P2K8). Nature of the assay: GCN2 Biochemical Assay (TR-FRET, GFP-eIF2S1 substrate phosphorylation). As to conditions: read-out: IC50 (GCN2 Inhibitory Activity). The protocol: Experimental Example 1: GCN2 Biochemical Assay
An inhibitory effect of the inventive compound on GCN2 was identified as follows.
384-well (Greiner #784075) (or 1536-well [Greiner #782075]) plates containing 60 nl (or 20 nl for 1536-well) of compound in 100% DMSO (10 concentrations serially diluted 3.16-fold) were prepared. Two copies of plates were used—one for the GCN2 assay and a second for an artifact plate. Working reagents were prepared as follows—reaction buffer: Tris pH 7.5 20 mM, MgCl2 5 mM, DTT 1 mM, Brij-35 0.005%, EGTA 0.5 mM in water; 2× enzyme solution: GCN2 (produced in-house) 1.6 nM in reaction buffer; 2× substrate solution: GFP-eIFS1 (Thermo Fisher Scientific, PV4809) 50 nM, ATP 0.2 mM, tRNA 0.4 mg/ml in reaction buffer; p-GFP-eIF2S1 (artifact) solution: p-GFP-eIFS1 (produced by incubation of 100 nM GFP-eIF2S1 in reaction buffer with 100 uM ATP and 1 nM PERK KD enzyme for 3 hr at room temperature) 2 nM in reaction buffer; 3× stop/antibody solution: p-GFP-EIF2S1 Th-Ab (Thermo Fisher Scientific, PV4816) 6 nM, AZ13933939 3 uM, BSA 3% in reaction buffer. Reagents were loaded onto a liquid dispenser (Certus FLEX, Trajan Scientific and Medical), and 3 ul (1 ul for 1536-well) of 2× enzyme solution, followed by 3 ul (1 ul for 1536-well) of 2× substrate solution was added to the plates. When small numbers of plates were processed, the enzyme solution was added first to all plates, then the valve used for the substrate solution was primed immediately prior to use. Plates were tapped or spun 1 min/1K/RT to ensure proper mixing, followed by incubation at room temperature for 70 mins, covered/stacked in the dark. For the artifact plate, 6 ul of p-GFP-eIF2S1 solution was added prior to adding the stop/antibody solution. 3 ul (1 ul for 1536-well) of 3× stop/antibody solution was added to the plates, followed by a spin-down for 1 min/1K/RT, and incubation for 2-3 hr, sealed or covered with lids in the dark at room temperature. Plates were read on a plate reader (PHERAstar FSX, BMF Labtech) at Ex 340/Em 490/Em 520 nm.

Molecules are shown by their SMILES.

Sequence of GCN2 (Q9P2K8 whole entry): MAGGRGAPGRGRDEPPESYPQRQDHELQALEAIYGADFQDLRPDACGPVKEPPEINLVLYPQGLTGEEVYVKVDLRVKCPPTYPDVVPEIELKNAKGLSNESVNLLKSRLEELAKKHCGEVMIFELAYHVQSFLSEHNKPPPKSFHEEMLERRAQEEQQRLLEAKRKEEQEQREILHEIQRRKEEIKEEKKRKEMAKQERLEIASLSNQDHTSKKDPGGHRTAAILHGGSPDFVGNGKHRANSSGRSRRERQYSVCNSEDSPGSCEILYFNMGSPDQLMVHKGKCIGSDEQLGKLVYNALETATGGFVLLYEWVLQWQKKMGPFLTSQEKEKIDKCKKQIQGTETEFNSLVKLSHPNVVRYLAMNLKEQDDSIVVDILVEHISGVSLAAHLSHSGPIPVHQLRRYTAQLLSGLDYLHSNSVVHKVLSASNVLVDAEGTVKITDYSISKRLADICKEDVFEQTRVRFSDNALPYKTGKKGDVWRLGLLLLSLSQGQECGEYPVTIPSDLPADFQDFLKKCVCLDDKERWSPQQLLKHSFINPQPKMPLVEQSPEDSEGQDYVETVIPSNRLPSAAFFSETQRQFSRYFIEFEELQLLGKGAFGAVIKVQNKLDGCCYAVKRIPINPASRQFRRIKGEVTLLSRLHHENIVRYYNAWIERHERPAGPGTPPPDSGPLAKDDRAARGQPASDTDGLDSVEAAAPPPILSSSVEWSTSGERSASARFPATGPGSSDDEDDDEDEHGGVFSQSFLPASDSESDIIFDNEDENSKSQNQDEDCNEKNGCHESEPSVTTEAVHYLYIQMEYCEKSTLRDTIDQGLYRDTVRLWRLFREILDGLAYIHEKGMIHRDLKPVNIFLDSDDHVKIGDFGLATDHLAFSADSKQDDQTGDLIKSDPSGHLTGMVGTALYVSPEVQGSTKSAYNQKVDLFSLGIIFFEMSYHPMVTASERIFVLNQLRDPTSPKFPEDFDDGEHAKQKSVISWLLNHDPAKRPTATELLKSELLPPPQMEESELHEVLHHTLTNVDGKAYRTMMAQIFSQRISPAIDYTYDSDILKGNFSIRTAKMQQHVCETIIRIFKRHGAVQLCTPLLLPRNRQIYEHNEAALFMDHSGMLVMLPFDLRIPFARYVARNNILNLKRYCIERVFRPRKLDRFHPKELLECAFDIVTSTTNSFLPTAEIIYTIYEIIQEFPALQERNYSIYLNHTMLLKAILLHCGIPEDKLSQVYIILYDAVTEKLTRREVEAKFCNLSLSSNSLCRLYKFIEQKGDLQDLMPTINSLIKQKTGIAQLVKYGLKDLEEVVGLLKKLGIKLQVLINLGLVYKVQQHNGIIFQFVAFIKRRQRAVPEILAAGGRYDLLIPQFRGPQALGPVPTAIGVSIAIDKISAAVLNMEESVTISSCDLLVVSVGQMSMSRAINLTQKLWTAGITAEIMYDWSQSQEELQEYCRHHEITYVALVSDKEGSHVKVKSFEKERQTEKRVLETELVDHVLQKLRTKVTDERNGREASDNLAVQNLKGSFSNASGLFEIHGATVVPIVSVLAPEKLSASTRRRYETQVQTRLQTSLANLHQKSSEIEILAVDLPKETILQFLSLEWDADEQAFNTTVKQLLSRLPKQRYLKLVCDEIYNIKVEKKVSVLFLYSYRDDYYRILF

For orientation: IC50 means the concentration that inhibits the measured activity by half. As to `Cc1cnc(Nc2cc(C)n(C)n2)nc1-c1c[nH]c2c(NC(=O)CN3CC[C@H](Oc4ncnc(Cl)c4C)C3)cccc12` [Example 94, (S)-2-(3-((6-chloro-5-methylpyrimidin-4-yl)oxy)pyrrolidin-1-yl)-N-(3-(2-((1,5-dimethyl-1H-pyrazol-3-yl)amino)-5-methylpyrimidin-4-yl)-1H-indol-7-yl)acetamide], the IC50 is 10 to 100 nM.
Turning to `COCCNc1nccc(O[C@H]2CCN(CC(=O)Nc3cccc4c(-c5nc(Nc6cc(C)n(C)n6)ncc5C)c[nH]c34)C2)n1` [Example 216, (S)-N-(3-(2-((1,5-dimethyl-1H-pyrazol-3-yl)amino)-5-methylpyrimidin-4-yl)-1H-indol-7-yl)-2-(3-((2-((2-methoxyethyl)amino)pyrimidin-4-yl)oxy)pyrrolidin-1-yl)acetamide], the IC50 is less than 10 nM.
Under `Cc1cnc(Nc2cc(C)n(C)n2)nc1-c1c[nH]c2c(N3Cc4c(cccc4-c4c(C)noc4C)C3=O)cccc12` [Example 444, 2-(3-(2-((1,5-dimethyl-1H-pyrazol-3-yl)amino)-5-methylpyrimidin-4-yl)-1H-indol-7-yl)-4-(3,5-dimethylisoxazol-4-yl)isoindolin-1-one] stands less than 10 nM; under `Cc1cnc(Nc2cc(C)n(C)n2)nc1-c1c[nH]c2c(N3Cc4c(cccc4-c4ccc[nH]4)C3=O)cccc12` [Example 442, 2-(3-(2-((1,5-dimethyl-1H-pyrazol-3-yl)amino)-5-methylpyrimidin-4-yl)-1H-indol-7-yl)-4-(1H-pyrrol-2-yl)isoindolin-1-one], 10 to 100 nM; under `Cc1cnc(Nc2cc(C)n(C)n2)nc1-c1c[nH]c2c(N3Cc4c(cccc4-c4ccsc4)C3=O)cccc12` [Example 461, 2-(3-(2-((1,5-dimethyl-1H-pyrazol-3-yl)amino)-5-methylpyrimidin-4-yl)-1H-indol-7-yl)-4-(thiophen-3-yl)isoindolin-1-one], 10 to 100 nM.
Under `Cc1cnc(Nc2cc(C)n(C)n2)nc1-c1c[nH]c2c(N3Cc4c(cccc4-c4cncnc4)C3=O)cccc12` [Example 417, 2-(3-(2-((1,5-dimethyl-1H-pyrazol-3-yl)amino)-5-methylpyrimidin-4-yl)-1H-indol-7-yl)-4-(pyrimidin-5-yl)isoindolin-1-one] stands less than 10 nM.
Turning to `Cc1cnc(Nc2cc(C)n(C)n2)nc1-c1c[nH]c2c(NC(=O)CN3C[C@@H](Oc4ccnc(NC5CC5)n4)CC3=O)cccc12` [Example 61, (S)-2-(4-((2-(cyclopropylamino)pyrimidin-4-yl)oxy)-2-oxopyrrolidin-1-yl)-N-(3-(2-((1,5-dimethyl-1H-pyrazol-3-yl)amino)-5-methylpyrimidin-4-yl)-1H-indol-7-yl)acetamide], the IC50 is less than 10 nM.
Under `Cc1cnc(Nc2cc(C)n(C)n2)nc1-c1c[nH]c2c(N3Cc4c(Br)cccc4C3=O)cccc12` [Example 266, 4-bromo-2-(3-(2-((1,5-dimethyl-1H-pyrazol-3-yl)amino)-5-methylpyrimidin-4-yl)-1H-indol-7-yl)isoindolin-1-one] stands less than 10 nM; under `Cc1cnc(Nc2cc(C)n(C)n2)nc1-c1c[nH]c2c(N3Cc4c(/C=C/C(N)=O)cccc4C3=O)cccc12` [Example 358, (E)-3-(2-(3-(2-((1,5-dimethyl-1H-pyrazol-3-yl)amino)-5-methylpyrimidin-4-yl)-1H-indol-7-yl)-1-oxoisoindolin-4-yl)acrylamide], less than 10 nM.
Then `Cc1cnc(Nc2cc(C)n(C)n2)nc1-c1c[nH]c2c(N3Cc4cc(Br)ccc4C3=O)cccc12` [Example 270, 5-bromo-2-(3-(2-((1,5-dimethyl-1H-pyrazol-3-yl)amino)-5-methylpyrimidin-4-yl)-1H-indol-7-yl)isoindolin-1-one], with less than 10 nM; and `Cc1cnc(Nc2cc(C)n(C)n2)nc1-c1c[nH]c2c(N3Cc4c(NC(=O)C5CCCNC5)cccc4C3=O)cccc12` (stereo not shown) [Example 319, N-(2-(3-(2-((1,5-dimethyl-1H-pyrazol-3-yl)amino)-5-methylpyrimidin-4-yl)-1H-indol-7-yl)-1-oxoisoindolin-4-yl)piperidine-3-carboxamide], with less than 10 nM; and `Cc1cnc(Nc2cc(C)n(C)n2)nc1-c1c[nH]c2c(NC(=O)CN3CC[C@H](Oc4cc(N5CCN(C)CC5)ncn4)C3)cccc12` [Example 165, (S)-N-(3-(2-((1,5-dimethyl-1H-pyrazol-3-yl)amino)-5-methylpyrimidin-4-yl)-1H-indol-7-yl)-2-(3-((6-(4-methylpiperazin-1-yl)pyrimidin-4-yl)oxy)pyrrolidin-1-yl)acetamide], with less than 10 nM.
For `Cc1cnc(Nc2cc(C)n(C)n2)nc1-c1c[nH]c2c(NC(=O)CN3CC[C@H](Oc4cc(NCCCN(C)C)ncn4)C3)cccc12` [Example 148, (S)-N-(3-(2-((1,5-dimethyl-1H-pyrazol-3-yl)amino)-5-methylpyrimidin-4-yl)-1H-indol-7-yl)-2-(3-((6-((3-(dimethylamino)propyl)amino)pyrimidin-4-yl)oxy)pyrrolidin-1-yl)acetamide], the IC50 is less than 10 nM.
For `Cc1cnc(Nc2cc(C)n(C)n2)nc1-c1c[nH]c2c(N3Cc4c(cccc4-c4ccc(CO)cc4)C3=O)cccc12` [Example 460, 2-(3-(2-((1,5-dimethyl-1H-pyrazol-3-yl)amino)-5-methylpyrimidin-4-yl)-1H-indol-7-yl)-4-(4-(hydroxymethyl)phenyl)isoindolin-1-one], the IC50 is less than 10 nM.
Consider `Cc1cnc(Nc2cc(C)n(C)n2)nc1-c1c[nH]c2c(N3Cc4cccc(NS(=O)(=O)c5ccccc5)c4C3=O)cccc12` [Example 340, N-(2-(3-(2-((1,5-dimethyl-1H-pyrazol-3-yl)amino)-5-methylpyrimidin-4-yl)-1H-indol-7-yl)-3-oxoisoindolin-4-yl)benzenesulfonamide], for which the IC50 lay in the range of 100 to 1000 nM.
As for `Cc1cnc(Nc2cc(C)n(C)n2)nc1-c1c[nH]c2c(N3Cc4c(cccc4-c4ccc(N5CCN(C)CC5)cc4)C3=O)cccc12` [Example 426, 2-(3-(2-((1,5-dimethyl-1H-pyrazol-3-yl)amino)-5-methylpyrimidin-4-yl)-1H-indol-7-yl)-4-(4-(4-methylpiperazin-1-yl)phenyl)isoindolin-1-one], the IC50 is less than 10 nM.
In the case of `Cc1cnc(Nc2cc(C)n(C)n2)nc1-c1c[nH]c2c(N3Cc4c(cccc4C4=CCSCC4)C3=O)cccc12` [Example 413, 4-(3,6-dihydro-2H-thiopyran-4-yl)-2-(3-(2-((1,5-dimethyl-1H-pyrazol-3-yl)amino)-5-methylpyrimidin-4-yl)-1H-indol-7-yl)isoindolin-1-one], the IC50 was less than 10 nM.
Under `CNC(=O)c1cncc(O[C@H]2CCN(CC(=O)Nc3cccc4c(-c5nc(Nc6cc(C)n(C)n6)ncc5C)c[nH]c34)C2)n1` [Example 133, (S)-6-((1-(2-((3-(2-((1,5-dimethyl-1H-pyrazol-3-yl)amino)-5-methylpyrimidin-4-yl)-1H-indol-7-yl)amino)-2-oxoethyl)pyrrolidin-3-yl)oxy)-N-methylpyrazine-2-carboxamide] stands less than 10 nM; under `Cc1ccc(S(=O)(=O)Nc2cccc3c2CN(c2cccc4c(-c5nc(Nc6cc(C)n(C)n6)ncc5C)c[nH]c24)C3=O)cc1` [Example 343, N-(2-(3-(2-((1,5-dimethyl-1H-pyrazol-3-yl)amino)-5-methylpyrimidin-4-yl)-1H-indol-7-yl)-1-oxoisoindolin-4-yl)-4-methylbenzenesulfonamide], 10 to 100 nM; under `Cc1cnc(Nc2cc(C)n(C)n2)nc1-c1c[nH]c2c(N3Cc4c(cccc4-c4ccccc4C(F)(F)F)C3=O)cccc12` [Example 434, 2-(3-(2-((1,5-dimethyl-1H-pyrazol-3-yl)amino)-5-methylpyrimidin-4-yl)-1H-indol-7-yl)-4-(2-(trifluoromethyl)phenyl)isoindolin-1-one], 100 to 1000 nM.
Turning to `Cc1cc(-c2cccc3c2CN(c2cccc4c(-c5nc(Nc6cc(C)n(C)n6)ncc5C)c[nH]c24)C3=O)cnc1F` [Example 407, 2-(3-(2-((1,5-dimethyl-1H-pyrazol-3-yl)amino)-5-methylpyrimidin-4-yl)-1H-indol-7-yl)-4-(6-fluoro-5-methylpyridin-3-yl)isoindolin-1-one], the concentration for half-maximal inhibition (IC50) was 10 to 100 nM.
Under `Cc1cnc(Nc2cc(C)n(C)n2)nc1-c1c[nH]c2c(NC(=O)CN3CC[C@H](Oc4ccnc(NC(C)C(F)(F)F)n4)C3)cccc12` (stereo partly drawn) [Example 201, N-(3-(2-((1,5-dimethyl-1H-pyrazol-3-yl)amino)-5-methylpyrimidin-4-yl)-1H-indol-7-yl)-2-((3S)-3-((2-((1,1,1-trifluoropropan-2-yl)amino)pyrimidin-4-yl)oxy)pyrrolidin-1-yl)acetamide] stands 10 to 100 nM.
